Measurements published in article PMC12090182, “Repurposing of the RIPK1-Selective Benzo[1,4]oxazepin-4-one Scaffold for the Development of a Type III LIMK1/2 Inhibitor” (ACS Chemical Biology, 2025).

System: MRC-9 cells
Assay: Multiplex high-content viability assessment
Format: cell-based
Conditions: for Cell count normalized to cells treated with DMSO control / Cell count per well / Population Fragmented Nuclei (%) / Population Healthy Nuclei (%) / Population Pyknosed Nuclei (%) / Population apoptotic cell (%) / Population cell that influence microtubule strucutre (%) / Population with increased mitochondrial mass (%) / Population with membrane disruption (%): human fibroblast
Summary of the method: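 HEK293T and U2OS cells (DMEM) and MRC-9 fibroblasts (EMEM) exposed to compounds at 1 and 10 μM. Live-cell confocal imaging of cell shape and fluorescence before and at 12, 24 and 48 h. Normalized to 0.1% DMSO; biological duplicates with SEM.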

Question: Which results are given for `CN1C(=O)[C@@H](N2CCc3c(C(N)=O)nn(Cc4ccccc4)c3C2=O)COc2ccccc21` [Compound 11]?
Answer: Cell count normalized to cells treated with DMSO control (1 µM, 0 h, replicate 1): 1.108; Cell count per well (1 µM, 0 h, replicate 1): 166; Population Fragmented Nuclei (%) (1 µM, 0 h, replicate 1): 16.15%; Population Healthy Nuclei (%) (1 µM, 0 h, replicate 1): 68.94%; Population Pyknosed Nuclei (%) (1 µM, 0 h, replicate 1): 14.91%; Population apoptotic cell (%) (1 µM, 0 h, replicate 1): 29.17%; Population cell that influence microtubule strucutre (%) (1 µM, 0 h, replicate 1): 21.62%; Population with increased mitochondrial mass (%) (1 µM, 0 h, replicate 1): 7.21%; Population with membrane disruption (%) (1 µM, 0 h, replicate 1): 0.00%; Cell count normalized to cells treated with DMSO control (1 µM, 0 h, replicate 2): 0.9027; Cell count per well (1 µM, 0 h, replicate 2): 161; Population Fragmented Nuclei (%) (1 µM, 0 h, replicate 2): 20.65%; Population Healthy Nuclei (%) (1 µM, 0 h, replicate 2): 50.97%; Population Pyknosed Nuclei (%) (1 µM, 0 h, replicate 2): 28.39%; Population apoptotic cell (%) (1 µM, 0 h, replicate 2): 29.55%; Population cell that influence microtubule strucutre (%) (1 µM, 0 h, replicate 2): 43.04%; Population with increased mitochondrial mass (%) (1 µM, 0 h, replicate 2): 7.59%; Population with membrane disruption (%) (1 µM, 0 h, replicate 2): 5.06%; Cell count normalized to cells treated with DMSO control (1 µM, 12 h, replicate 1): 1.109; Cell count per well (1 µM, 12 h, replicate 1): 167; Population Fragmented Nuclei (%) (1 µM, 12 h, replicate 1): 8.64%; Population Healthy Nuclei (%) (1 µM, 12 h, replicate 1): 75.31%; Population Pyknosed Nuclei (%) (1 µM, 12 h, replicate 1): 16.05%; Population apoptotic cell (%) (1 µM, 12 h, replicate 1): 34.62%; Population cell that influence microtubule strucutre (%) (1 µM, 12 h, replicate 1): 20.49%; Population with increased mitochondrial mass (%) (1 µM, 12 h, replicate 1): 3.28%; Population with membrane disruption (%) (1 µM, 12 h, replicate 1): 0.82%; Cell count normalized to cells treated with DMSO control (1 µM, 12 h, replicate 2): 0.8825; Cell count per well (1 µM, 12 h, replicate 2): 147; Population Fragmented Nuclei (%) (1 µM, 12 h, replicate 2): 22.70%; Population Healthy Nuclei (%) (1 µM, 12 h, replicate 2): 46.81%; Population Pyknosed Nuclei (%) (1 µM, 12 h, replicate 2): 30.50%; Population apoptotic cell (%) (1 µM, 12 h, replicate 2): 34.88%; Population cell that influence microtubule strucutre (%) (1 µM, 12 h, replicate 2): 56.06%; Population with increased mitochondrial mass (%) (1 µM, 12 h, replicate 2): 10.61%; Population with membrane disruption (%) (1 µM, 12 h, replicate 2): 4.55%; Cell count normalized to cells treated with DMSO control (1 µM, 24 h, replicate 1): 1.1208; Cell count per well (1 µM, 24 h, replicate 1): 169; Population Fragmented Nuclei (%) (1 µM, 24 h, replicate 1): 16.36%; Population Healthy Nuclei (%) (1 µM, 24 h, replicate 1): 70.30%; Population Pyknosed Nuclei (%) (1 µM, 24 h, replicate 1): 13.33%; Population apoptotic cell (%) (1 µM, 24 h, replicate 1): 45.45%; Population cell that influence microtubule strucutre (%) (1 µM, 24 h, replicate 1): 18.10%; Population with increased mitochondrial mass (%) (1 µM, 24 h, replicate 1): 3.45%; Population with membrane disruption (%) (1 µM, 24 h, replicate 1): 1.72%; Cell count normalized to cells treated with DMSO control (1 µM, 24 h, replicate 2): 0.8977; Cell count per well (1 µM, 24 h, replicate 2): 148; Population Fragmented Nuclei (%) (1 µM, 24 h, replicate 2): 25.34%; Population Healthy Nuclei (%) (1 µM, 24 h, replicate 2): 47.26%; Population Pyknosed Nuclei (%) (1 µM, 24 h, replicate 2): 27.40%; Population apoptotic cell (%) (1 µM, 24 h, replicate 2): 50.00%; Population cell that influence microtubule strucutre (%) (1 µM, 24 h, replicate 2): 57.97%; Population with increased mitochondrial mass (%) (1 µM, 24 h, replicate 2): 11.59%; Population with membrane disruption (%) (1 µM, 24 h, replicate 2): 5.80%; Cell count normalized to cells treated with DMSO control (1 µM, 48 h, replicate 1): 1.035; Cell count per well (1 µM, 48 h, replicate 1): 157; Population Fragmented Nuclei (%) (1 µM, 48 h, replicate 1): 12.50%; Population Healthy Nuclei (%) (1 µM, 48 h, replicate 1): 75.00%; Population Pyknosed Nuclei (%) (1 µM, 48 h, replicate 1): 12.50%; Population apoptotic cell (%) (1 µM, 48 h, replicate 1): 68.42%; Population cell that influence microtubule strucutre (%) (1 µM, 48 h, replicate 1): 16.67%; Population with increased mitochondrial mass (%) (1 µM, 48 h, replicate 1): 3.51%; Population with membrane disruption (%) (1 µM, 48 h, replicate 1): 0.88%; Cell count normalized to cells treated with DMSO control (1 µM, 48 h, replicate 2): 0.8596; Cell count per well (1 µM, 48 h, replicate 2): 140; Population Fragmented Nuclei (%) (1 µM, 48 h, replicate 2): 27.61%; Population Healthy Nuclei (%) (1 µM, 48 h, replicate 2): 55.22%; Population Pyknosed Nuclei (%) (1 µM, 48 h, replicate 2): 17.16%; Population apoptotic cell (%) (1 µM, 48 h, replicate 2): 39.13%; Population cell that influence microtubule strucutre (%) (1 µM, 48 h, replicate 2): 47.30%; Population with increased mitochondrial mass (%) (1 µM, 48 h, replicate 2): 9.46%; Population with membrane disruption (%) (1 µM, 48 h, replicate 2): 2.70%; cytotoxicity (1 μM, MRC-9): no cytotoxicity; Cell count normalized to cells treated with DMSO control (10 µM, 0 h, replicate 1): 0.9342; Cell count per well (10 µM, 0 h, replicate 1): 140; Population Fragmented Nuclei (%) (10 µM, 0 h, replicate 1): 19.23%; Population Healthy Nuclei (%) (10 µM, 0 h, replicate 1): 57.69%; Population Pyknosed Nuclei (%) (10 µM, 0 h, replicate 1): 23.08%; Population apoptotic cell (%) (10 µM, 0 h, replicate 1): 33.33%; Population cell that influence microtubule strucutre (%) (10 µM, 0 h, replicate 1): 24.00%; Population with increased mitochondrial mass (%) (10 µM, 0 h, replicate 1): 6.67%; Population with membrane disruption (%) (10 µM, 0 h, replicate 1): 1.33%; Cell count normalized to cells treated with DMSO control (10 µM, 0 h, replicate 2): 0.8634; Cell count per well (10 µM, 0 h, replicate 2): 154; Population Fragmented Nuclei (%) (10 µM, 0 h, replicate 2): 23.88%; Population Healthy Nuclei (%) (10 µM, 0 h, replicate 2): 43.28%; Population Pyknosed Nuclei (%) (10 µM, 0 h, replicate 2): 32.84%; Population apoptotic cell (%) (10 µM, 0 h, replicate 2): 40.91%; Population cell that influence microtubule strucutre (%) (10 µM, 0 h, replicate 2): 39.66%; Population with increased mitochondrial mass (%) (10 µM, 0 h, replicate 2): 15.52%; Population with membrane disruption (%) (10 µM, 0 h, replicate 2): 8.62%; Cell count normalized to cells treated with DMSO control (10 µM, 12 h, replicate 1): 0.8966; Cell count per well (10 µM, 12 h, replicate 1): 135; Population Fragmented Nuclei (%) (10 µM, 12 h, replicate 1): 18.46%; Population Healthy Nuclei (%) (10 µM, 12 h, replicate 1): 53.08%; Population Pyknosed Nuclei (%) (10 µM, 12 h, replicate 1): 28.46%; Population apoptotic cell (%) (10 µM, 12 h, replicate 1): 67.57%; Population cell that influence microtubule strucutre (%) (10 µM, 12 h, replicate 1): 69.57%; Population with increased mitochondrial mass (%) (10 µM, 12 h, replicate 1): 15.94%; Population with membrane disruption (%) (10 µM, 12 h, replicate 1): 1.45%; Cell count normalized to cells treated with DMSO control (10 µM, 12 h, replicate 2): 0.8165; Cell count per well (10 µM, 12 h, replicate 2): 136; Population Fragmented Nuclei (%) (10 µM, 12 h, replicate 2): 28.57%; Population Healthy Nuclei (%) (10 µM, 12 h, replicate 2): 55.46%; Population Pyknosed Nuclei (%) (10 µM, 12 h, replicate 2): 15.97%; Population apoptotic cell (%) (10 µM, 12 h, replicate 2): 47.37%; Population cell that influence microtubule strucutre (%) (10 µM, 12 h, replicate 2): 83.33%; Population with increased mitochondrial mass (%) (10 µM, 12 h, replicate 2): 30.30%; Population with membrane disruption (%) (10 µM, 12 h, replicate 2): 7.58%; Cell count normalized to cells treated with DMSO control (10 µM, 24 h, replicate 1): 0.8754; Cell count per well (10 µM, 24 h, replicate 1): 132; Population Fragmented Nuclei (%) (10 µM, 24 h, replicate 1): 17.21%; Population Healthy Nuclei (%) (10 µM, 24 h, replicate 1): 55.74%; Population Pyknosed Nuclei (%) (10 µM, 24 h, replicate 1): 27.05%; Population apoptotic cell (%) (10 µM, 24 h, replicate 1): 60.61%; Population cell that influence microtubule strucutre (%) (10 µM, 24 h, replicate 1): 72.06%; Population with increased mitochondrial mass (%) (10 µM, 24 h, replicate 1): 17.65%; Population with membrane disruption (%) (10 µM, 24 h, replicate 1): 1.47%; Cell count normalized to cells treated with DMSO control (10 µM, 24 h, replicate 2): 0.8068; Cell count per well (10 µM, 24 h, replicate 2): 133; Population Fragmented Nuclei (%) (10 µM, 24 h, replicate 2): 30.89%; Population Healthy Nuclei (%) (10 µM, 24 h, replicate 2): 56.10%; Population Pyknosed Nuclei (%) (10 µM, 24 h, replicate 2): 13.01%; Population apoptotic cell (%) (10 µM, 24 h, replicate 2): 56.25%; Population cell that influence microtubule strucutre (%) (10 µM, 24 h, replicate 2): 65.22%; Population with increased mitochondrial mass (%) (10 µM, 24 h, replicate 2): 20.29%; Population with membrane disruption (%) (10 µM, 24 h, replicate 2): 5.80%; Cell count normalized to cells treated with DMSO control (10 µM, 48 h, replicate 1): 0.8898; Cell count per well (10 µM, 48 h, replicate 1): 135; Population Fragmented Nuclei (%) (10 µM, 48 h, replicate 1): 23.81%; Population Healthy Nuclei (%) (10 µM, 48 h, replicate 1): 54.76%; Population Pyknosed Nuclei (%) (10 µM, 48 h, replicate 1): 21.43%; Population apoptotic cell (%) (10 µM, 48 h, replicate 1): 85.19%; Population cell that influence microtubule strucutre (%) (10 µM, 48 h, replicate 1): 56.52%; Population with increased mitochondrial mass (%) (10 µM, 48 h, replicate 1): 14.49%; Population with membrane disruption (%) (10 µM, 48 h, replicate 1): 0.00%; Cell count normalized to cells treated with DMSO control (10 µM, 48 h, replicate 2): 0.8904; Cell count per well (10 µM, 48 h, replicate 2): 145; Population Fragmented Nuclei (%) (10 µM, 48 h, replicate 2): 38.30%; Population Healthy Nuclei (%) (10 µM, 48 h, replicate 2): 58.16%; Population Pyknosed Nuclei (%) (10 µM, 48 h, replicate 2): 3.55%; Population apoptotic cell (%) (10 µM, 48 h, replicate 2): 60.00%; Population cell that influence microtubule strucutre (%) (10 µM, 48 h, replicate 2): 71.95%; Population with increased mitochondrial mass (%) (10 µM, 48 h, replicate 2): 18.29%; Population with membrane disruption (%) (10 µM, 48 h, replicate 2): 3.66%
